Assays:
Experiment in all cases: DiscoverX scanEDGE kinase panel
Assay type in all cases: binding
Conditions in all cases: Cmpd Conc 1000 nM, read-out: % Ctrl
ACVR2B = target: T1, ACVR2B (Homo sapiens, UniProt Q13705)
T1 construct: purchased DiscoverX (DiscoveRx) KINOMEscan scanEDGE / KdELECT
Description: (§1) We hypothesized that inhibitors of the normal and flipped modes would display distinct selectivity profiles.
(§2) 1. 16 and 21 kinome selectivity data
(§3) (P – phosphorylated; nP – nonphosphorylated; % Ctrl values show the % of DNAEtagged
(§4) kinase which was not displaced from a solid supported ligand by a test compound relative to
(§5) untreated control, quantified by qPCR).
(§6) Please note: ALKs 1, 2, 3, 4, 5 and 6 are listed by their gene symbols: ACVRL1 (ALK1), ACVR1
(§7) (ALK2), BMPR1A (ALK3), ACVR1B (ALK4), TGFBR1 (ALK5) and BMPR1B (ALK6)
(§8) Cmpd DiscoverX Gene Symbol Entrez Gene Symbol % Ctrl Cmpd Conc (nM)

BRAF = target: T2, BRAF (Homo sapiens, UniProt P15056)
T2 construct: purchased DiscoverX (DiscoveRx) KINOMEscan scanEDGE / KdELECT
Description: as §1, §2, §3, §4, §5, §6, §7, §8

BRAF(V600E) = target: T3, BRAF(V600E) (Homo sapiens, UniProt P15056, V600E)
T3 construct: purchased DiscoverX (DiscoveRx) KINOMEscan scanEDGE / KdELECT
Description: as §1, §2, §3, §4, §5, §6, §7, §8

CHEK1 = target: T4, CHEK1 (Homo sapiens, UniProt O14757)
T4 construct: purchased DiscoverX (DiscoveRx) KINOMEscan scanEDGE / KdELECT
Description: as §1, §2, §3, §4, §5, §6, §7, §8

CSF1R = target: T5, CSF1R (Homo sapiens, UniProt P07333)
T5 construct: purchased DiscoverX (DiscoveRx) KINOMEscan scanEDGE / KdELECT
Description: as §1, §2, §3, §4, §5, §6, §7, §8

CSNK1D = target: T6, CSNK1D (Homo sapiens, UniProt P48730)
T6 construct: purchased DiscoverX (DiscoveRx) KINOMEscan scanEDGE / KdELECT
Description: as §1, §2, §3, §4, §5, §6, §7, §8

DYRK1B = target: T7, DYRK1B (Homo sapiens, UniProt Q9Y463)
T7 construct: purchased DiscoverX (DiscoveRx) KINOMEscan scanEDGE / KdELECT
Description: as §1, §2, §3, §4, §5, §6, §7, §8

EPHA2 = target: T8, EPHA2 (Homo sapiens, UniProt P29317)
T8 construct: purchased DiscoverX (DiscoveRx) KINOMEscan scanEDGE / KdELECT
Description: as §1, §2, §3, §4, §5, §6, §7, §8

ERBB2 = target: T9, ERBB2 (Homo sapiens, UniProt P04626)
T9 construct: purchased DiscoverX (DiscoveRx) KINOMEscan scanEDGE / KdELECT
Description: as §1, §2, §3, §4, §5, §6, §7, §8

ERBB4 = target: T10, ERBB4 (Homo sapiens, UniProt Q15303)
T10 construct: purchased DiscoverX (DiscoveRx) KINOMEscan scanEDGE / KdELECT
Description: as §1, §2, §3, §4, §5, §6, §7, §8

FGFR2 = target: T11, FGFR2 (Homo sapiens, UniProt P21802)
T11 construct: purchased DiscoverX (DiscoveRx) KINOMEscan scanEDGE / KdELECT
Description: as §1, §2, §3, §4, §5, §6, §7, §8

FYN = target: T12, FYN (Homo sapiens, UniProt P06241)
T12 construct: purchased DiscoverX (DiscoveRx) KINOMEscan scanEDGE / KdELECT
T12 sequence (P06241 whole entry): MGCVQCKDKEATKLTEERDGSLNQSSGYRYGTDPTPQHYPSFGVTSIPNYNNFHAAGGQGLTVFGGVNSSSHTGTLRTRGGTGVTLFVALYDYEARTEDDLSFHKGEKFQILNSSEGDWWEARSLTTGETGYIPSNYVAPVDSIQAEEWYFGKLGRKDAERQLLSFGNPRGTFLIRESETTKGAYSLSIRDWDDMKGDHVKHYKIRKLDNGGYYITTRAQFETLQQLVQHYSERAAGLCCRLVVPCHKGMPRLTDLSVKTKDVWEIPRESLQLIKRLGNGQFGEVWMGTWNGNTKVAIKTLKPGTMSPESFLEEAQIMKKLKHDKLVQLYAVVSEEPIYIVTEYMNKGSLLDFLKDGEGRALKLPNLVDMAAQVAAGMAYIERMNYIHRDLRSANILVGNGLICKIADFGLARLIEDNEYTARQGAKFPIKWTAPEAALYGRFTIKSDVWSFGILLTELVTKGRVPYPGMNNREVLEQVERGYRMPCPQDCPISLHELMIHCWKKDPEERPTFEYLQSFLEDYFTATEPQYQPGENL
Description: as §1, §2, §3, §4, §5, §6, §7, §8

GSK3B = target: T13, GSK3B (Homo sapiens, UniProt P49841)
T13 construct: purchased DiscoverX (DiscoveRx) KINOMEscan scanEDGE / KdELECT
Description: as §1, §2, §3, §4, §5, §6, §7, §8

IGF1R = target: T14, IGF1R (Homo sapiens, UniProt P08069)
T14 construct: purchased DiscoverX (DiscoveRx) KINOMEscan scanEDGE / KdELECT
Description: as §1, §2, §3, §4, §5, §6, §7, §8

INSR = target: T15, INSR (Homo sapiens, UniProt P06213)
T15 construct: purchased DiscoverX (DiscoveRx) KINOMEscan scanEDGE / KdELECT
Description: as §1, §2, §3, §4, §5, §6, §7, §8

JNK3 = target: T16, JNK3 (Homo sapiens, UniProt P53779)
T16 construct: purchased DiscoverX (DiscoveRx) KINOMEscan scanEDGE / KdELECT
T16 sequence (P53779 whole entry): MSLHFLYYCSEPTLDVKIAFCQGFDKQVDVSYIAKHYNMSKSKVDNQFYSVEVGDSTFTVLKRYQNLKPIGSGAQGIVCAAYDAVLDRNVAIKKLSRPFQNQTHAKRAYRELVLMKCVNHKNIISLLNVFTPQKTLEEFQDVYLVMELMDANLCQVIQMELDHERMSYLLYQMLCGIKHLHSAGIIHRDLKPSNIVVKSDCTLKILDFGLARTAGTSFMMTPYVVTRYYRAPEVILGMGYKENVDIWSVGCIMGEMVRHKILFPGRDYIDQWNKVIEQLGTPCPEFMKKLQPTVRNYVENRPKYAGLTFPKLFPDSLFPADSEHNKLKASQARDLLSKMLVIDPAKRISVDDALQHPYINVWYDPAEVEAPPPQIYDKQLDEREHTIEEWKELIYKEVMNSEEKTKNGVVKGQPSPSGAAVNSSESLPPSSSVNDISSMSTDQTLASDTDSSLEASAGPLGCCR
Description: as §1, §2, §3, §4, §5, §6, §7, §8

KIT(D816H) = target: T17, KIT(D816H) (Homo sapiens, UniProt P10721, D816H)
T17 construct: purchased DiscoverX (DiscoveRx) KINOMEscan scanEDGE / KdELECT
T17 sequence (P10721 26-976 D816H): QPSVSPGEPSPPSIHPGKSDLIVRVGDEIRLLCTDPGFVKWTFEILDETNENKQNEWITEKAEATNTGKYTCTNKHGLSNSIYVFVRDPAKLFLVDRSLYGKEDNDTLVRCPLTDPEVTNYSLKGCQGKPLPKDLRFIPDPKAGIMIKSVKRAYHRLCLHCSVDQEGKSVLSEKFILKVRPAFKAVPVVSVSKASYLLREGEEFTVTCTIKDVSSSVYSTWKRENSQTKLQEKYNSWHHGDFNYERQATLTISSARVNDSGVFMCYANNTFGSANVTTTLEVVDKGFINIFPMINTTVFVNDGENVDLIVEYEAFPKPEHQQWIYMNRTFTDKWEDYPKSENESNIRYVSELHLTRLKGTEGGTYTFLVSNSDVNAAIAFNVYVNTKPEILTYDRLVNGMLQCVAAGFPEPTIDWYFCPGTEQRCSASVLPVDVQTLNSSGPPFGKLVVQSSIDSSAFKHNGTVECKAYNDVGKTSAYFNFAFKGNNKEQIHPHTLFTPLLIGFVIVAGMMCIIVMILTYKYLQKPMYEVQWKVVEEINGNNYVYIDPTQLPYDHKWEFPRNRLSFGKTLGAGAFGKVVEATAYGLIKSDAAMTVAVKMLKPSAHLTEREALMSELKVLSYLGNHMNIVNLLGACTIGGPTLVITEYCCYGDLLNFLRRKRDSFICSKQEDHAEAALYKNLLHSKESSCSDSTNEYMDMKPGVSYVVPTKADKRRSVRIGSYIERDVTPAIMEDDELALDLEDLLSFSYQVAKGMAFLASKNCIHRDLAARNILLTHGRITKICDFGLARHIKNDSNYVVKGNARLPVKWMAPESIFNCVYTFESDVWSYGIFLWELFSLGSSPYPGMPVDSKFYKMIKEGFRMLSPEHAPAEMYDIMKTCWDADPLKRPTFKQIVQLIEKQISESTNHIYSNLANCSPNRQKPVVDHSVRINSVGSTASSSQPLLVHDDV
Description: as §1, §2, §3, §4, §5, §6, §7, §8

KIT(V559D,T670I) = target: T18, KIT(V559D,T670I) (Homo sapiens, UniProt P10721, T670I/V559D)
T18 construct: purchased DiscoverX (DiscoveRx) KINOMEscan scanEDGE / KdELECT
T18 sequence (P10721 26-976 V559D/T670I): as the sequence (P10721 26-976 D816H) above, with V534D, T645I, H791D counted along it
Description: as §1, §2, §3, §4, §5, §6, §7, §8

MEK1 = target: T19, MEK1 (Homo sapiens, UniProt Q02750)
T19 construct: purchased DiscoverX (DiscoveRx) KINOMEscan scanEDGE / KdELECT
Description: as §1, §2, §3, §4, §5, §6, §7, §8

MLK1 = target: T20, MLK1 (Homo sapiens, UniProt P80192)
T20 construct: purchased DiscoverX (DiscoveRx) KINOMEscan scanEDGE / KdELECT
Description: as §1, §2, §3, §4, §5, §6, §7, §8

NEK6 = target: T21, NEK6 (Homo sapiens, UniProt Q9HC98)
T21 construct: purchased DiscoverX (DiscoveRx) KINOMEscan scanEDGE / KdELECT
Description: as §1, §2, §3, §4, §5, §6, §7, §8

PAK1 = target: T22, PAK1 (Homo sapiens, UniProt Q13153)
T22 construct: purchased DiscoverX (DiscoveRx) KINOMEscan scanEDGE / KdELECT
Description: as §1, §2, §3, §4, §5, §6, §7, §8

PCTK1 = target: T23, PCTK1 (Homo sapiens, UniProt Q00536)
T23 construct: purchased DiscoverX (DiscoveRx) KINOMEscan scanEDGE / KdELECT
Description: as §1, §2, §3, §4, §5, §6, §7, §8

PDGFRB = target: T24, PDGFRB (Homo sapiens, UniProt P09619)
T24 construct: purchased DiscoverX (DiscoveRx) KINOMEscan scanEDGE / KdELECT
T24 sequence (P09619 33-1106): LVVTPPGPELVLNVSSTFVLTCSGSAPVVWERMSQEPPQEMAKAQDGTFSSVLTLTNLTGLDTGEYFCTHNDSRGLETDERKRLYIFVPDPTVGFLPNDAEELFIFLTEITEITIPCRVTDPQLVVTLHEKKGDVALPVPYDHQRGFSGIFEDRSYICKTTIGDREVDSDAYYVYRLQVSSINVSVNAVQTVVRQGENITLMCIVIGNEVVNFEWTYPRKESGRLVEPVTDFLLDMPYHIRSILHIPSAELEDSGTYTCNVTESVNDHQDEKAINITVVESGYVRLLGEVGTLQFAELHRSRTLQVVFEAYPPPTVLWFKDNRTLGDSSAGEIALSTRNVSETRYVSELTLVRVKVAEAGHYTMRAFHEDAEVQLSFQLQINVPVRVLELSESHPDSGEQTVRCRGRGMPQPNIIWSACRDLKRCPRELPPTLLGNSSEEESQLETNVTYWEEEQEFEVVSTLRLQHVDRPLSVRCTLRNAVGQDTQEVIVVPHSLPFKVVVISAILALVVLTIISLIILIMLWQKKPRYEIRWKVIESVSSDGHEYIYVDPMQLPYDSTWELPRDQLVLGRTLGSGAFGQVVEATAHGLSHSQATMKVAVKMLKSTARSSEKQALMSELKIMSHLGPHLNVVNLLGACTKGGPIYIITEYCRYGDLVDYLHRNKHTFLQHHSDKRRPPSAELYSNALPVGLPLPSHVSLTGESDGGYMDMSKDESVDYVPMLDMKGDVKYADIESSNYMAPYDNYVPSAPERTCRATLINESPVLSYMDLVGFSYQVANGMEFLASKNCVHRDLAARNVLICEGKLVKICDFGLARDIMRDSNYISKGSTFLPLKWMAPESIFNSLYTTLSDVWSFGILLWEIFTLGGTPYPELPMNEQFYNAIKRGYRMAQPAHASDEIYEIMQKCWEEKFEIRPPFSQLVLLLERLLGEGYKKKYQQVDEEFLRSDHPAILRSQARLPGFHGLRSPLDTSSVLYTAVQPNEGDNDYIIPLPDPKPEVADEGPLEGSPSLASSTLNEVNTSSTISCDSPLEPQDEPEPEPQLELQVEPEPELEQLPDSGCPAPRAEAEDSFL
Description: as §1, §2, §3, §4, §5, §6, §7, §8

PIK3C2B = target: T25, PIK3C2B (Homo sapiens, UniProt O00750)
T25 construct: purchased DiscoverX (DiscoveRx) KINOMEscan scanEDGE / KdELECT
Description: as §1, §2, §3, §4, §5, §6, §7, §8

PIK3CA = target: T26, PIK3CA (Homo sapiens, UniProt P42336)
T26 construct: purchased DiscoverX (DiscoveRx) KINOMEscan scanEDGE / KdELECT
Description: as §1, §2, §3, §4, §5, §6, §7, §8

PIM1 = target: T27, PIM1 (Homo sapiens, UniProt P11309)
T27 construct: purchased DiscoverX (DiscoveRx) KINOMEscan scanEDGE / KdELECT
Description: as §1, §2, §3, §4, §5, §6, §7, §8

PIM2 = target: T28, PIM2 (Homo sapiens, UniProt Q9P1W9)
T28 construct: purchased DiscoverX (DiscoveRx) KINOMEscan scanEDGE / KdELECT
Description: as §1, §2, §3, §4, §5, §6, §7, §8

PLK1 = target: T29, PLK1 (Homo sapiens, UniProt P53350)
T29 construct: purchased DiscoverX (DiscoveRx) KINOMEscan scanEDGE / KdELECT
Description: as §1, §2, §3, §4, §5, §6, §7, §8

RAF1 = target: T30, RAF1 (Homo sapiens, UniProt P04049)
T30 construct: purchased DiscoverX
Description: as §1, §2, §3, §4, §5, §6, §7, §8

RIOK2 = target: T31, RIOK2 (Homo sapiens, UniProt Q9BVS4)
T31 construct: purchased DiscoverX (DiscoveRx) KINOMEscan scanEDGE / KdELECT
Description: as §1, §2, §3, §4, §5, §6, §7, §8

ROCK2 = target: T32, ROCK2 (Homo sapiens, UniProt O75116)
T32 construct: purchased DiscoverX (DiscoveRx) KINOMEscan scanEDGE / KdELECT
Description: as §1, §2, §3, §4, §5, §6, §7, §8

SIK2 = target: T33, SIK2 (Homo sapiens, UniProt Q9H0K1)
T33 construct: purchased DiscoverX (DiscoveRx) KINOMEscan scanEDGE / KdELECT
Description: as §1, §2, §3, §4, §5, §6, §7, §8

SRC = target: T34, SRC (Homo sapiens, UniProt P12931)
T34 construct: purchased DiscoverX (DiscoveRx) KINOMEscan scanEDGE / KdELECT
Description: as §1, §2, §3, §4, §5, §6, §7, §8

TNK1 = target: T35, TNK1 (Homo sapiens, UniProt Q13470)
T35 construct: purchased DiscoverX (DiscoveRx) KINOMEscan scanEDGE / KdELECT
T35 sequence (Q13470 whole entry): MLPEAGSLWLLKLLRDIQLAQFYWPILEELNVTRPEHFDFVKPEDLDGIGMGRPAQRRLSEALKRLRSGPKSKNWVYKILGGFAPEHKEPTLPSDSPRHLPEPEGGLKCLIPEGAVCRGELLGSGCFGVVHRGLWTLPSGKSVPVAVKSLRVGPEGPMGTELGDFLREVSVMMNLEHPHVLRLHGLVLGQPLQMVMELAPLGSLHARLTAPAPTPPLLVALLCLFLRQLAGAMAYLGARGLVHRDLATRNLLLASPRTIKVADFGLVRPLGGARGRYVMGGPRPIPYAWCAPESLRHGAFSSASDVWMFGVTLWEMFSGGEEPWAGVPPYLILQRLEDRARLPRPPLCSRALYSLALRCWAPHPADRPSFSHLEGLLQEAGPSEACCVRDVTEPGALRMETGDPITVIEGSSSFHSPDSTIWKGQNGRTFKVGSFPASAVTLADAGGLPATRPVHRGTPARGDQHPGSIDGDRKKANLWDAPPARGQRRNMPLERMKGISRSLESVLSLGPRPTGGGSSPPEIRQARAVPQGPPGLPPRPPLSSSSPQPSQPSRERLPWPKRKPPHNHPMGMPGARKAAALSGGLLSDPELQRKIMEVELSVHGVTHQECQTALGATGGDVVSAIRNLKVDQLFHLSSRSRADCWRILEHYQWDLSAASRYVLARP
Description: as §1, §2, §3, §4, §5, §6, §7, §8

TSSK1B = target: T36, TSSK1B (Homo sapiens, UniProt Q9BXA7)
T36 construct: purchased DiscoverX (DiscoveRx) KINOMEscan scanEDGE / KdELECT
Description: as §1, §2, §3, §4, §5, §6, §7, §8

VEGFR2 = target: T37, VEGFR2 (Homo sapiens, UniProt P35968)
T37 construct: purchased DiscoverX (DiscoveRx) KINOMEscan scanEDGE / KdELECT
Description: as §1, §2, §3, §4, §5, §6, §7, §8

ZAP70 = target: T38, ZAP70 (Homo sapiens, UniProt P43403)
T38 construct: purchased DiscoverX (DiscoveRx) KINOMEscan scanEDGE / KdELECT
T38 sequence (P43403 whole entry): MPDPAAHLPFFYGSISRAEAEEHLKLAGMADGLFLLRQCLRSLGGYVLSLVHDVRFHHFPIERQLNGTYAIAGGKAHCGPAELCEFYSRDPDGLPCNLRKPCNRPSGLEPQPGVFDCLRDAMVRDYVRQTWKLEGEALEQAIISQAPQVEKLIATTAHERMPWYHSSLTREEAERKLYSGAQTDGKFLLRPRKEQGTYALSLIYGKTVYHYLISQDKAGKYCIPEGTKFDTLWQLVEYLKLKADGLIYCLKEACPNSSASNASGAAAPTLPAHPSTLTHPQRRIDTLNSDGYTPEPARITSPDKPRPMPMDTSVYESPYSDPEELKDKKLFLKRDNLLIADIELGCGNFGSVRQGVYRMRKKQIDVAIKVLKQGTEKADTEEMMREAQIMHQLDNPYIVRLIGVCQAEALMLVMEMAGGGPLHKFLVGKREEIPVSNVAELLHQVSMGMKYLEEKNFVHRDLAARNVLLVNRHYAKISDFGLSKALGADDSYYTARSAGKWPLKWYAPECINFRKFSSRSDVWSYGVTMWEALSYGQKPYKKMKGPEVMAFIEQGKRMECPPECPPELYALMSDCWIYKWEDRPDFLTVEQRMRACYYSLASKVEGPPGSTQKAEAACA
Description: as §1, §2, §3, §4, §5, §6, §7, §8

p38Ealpha = target: T39, p38Ealpha (Homo sapiens, UniProt Q16539)
T39 construct: purchased DiscoverX (DiscoveRx) KINOMEscan scanEDGE / KdELECT
Description: as §1, §2, §3, §4, §5, §6, §7, §8

p38Ebeta = target: T40, p38Ebeta (Homo sapiens, UniProt Q15759)
T40 construct: purchased DiscoverX (DiscoveRx) KINOMEscan scanEDGE / KdELECT
Description: as §1, §2, §3, §4, §5, §6, §7, §8

T1 sequence (Q13705 19-512): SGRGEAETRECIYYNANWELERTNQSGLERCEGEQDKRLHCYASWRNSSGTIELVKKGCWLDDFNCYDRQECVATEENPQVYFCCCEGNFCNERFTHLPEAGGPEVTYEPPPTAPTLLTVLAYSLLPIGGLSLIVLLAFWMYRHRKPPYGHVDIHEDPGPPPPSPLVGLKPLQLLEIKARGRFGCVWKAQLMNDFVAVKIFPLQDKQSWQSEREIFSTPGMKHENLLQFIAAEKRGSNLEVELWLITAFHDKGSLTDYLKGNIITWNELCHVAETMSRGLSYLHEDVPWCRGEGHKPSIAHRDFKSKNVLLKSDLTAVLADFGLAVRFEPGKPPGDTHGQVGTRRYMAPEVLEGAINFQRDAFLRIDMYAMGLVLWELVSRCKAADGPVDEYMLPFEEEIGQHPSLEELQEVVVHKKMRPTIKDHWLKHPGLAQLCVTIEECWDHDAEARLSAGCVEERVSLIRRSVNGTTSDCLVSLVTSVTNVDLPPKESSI

## O=c1c2cc(-c3ccnc4ccccc34)ccc2ncn1-c1ccc(N2CCOCC2)cc1 [compound 16, 3-(4-Morpholinophenyl)-6-(quinolin-4-yl)quinazolin-4(3H)-one]
ACVR2B
  remaining binding at 1 µM: 98%
BRAF
  remaining binding at 1 µM: 65%
BRAF(V600E)
  remaining binding at 1 µM: 58%
CHEK1
  remaining binding at 1 µM: 100%
CSF1R
  remaining binding at 1 µM: 91%
CSNK1D
  remaining binding at 1 µM: 68%
DYRK1B
  remaining binding at 1 µM: 90%
EPHA2
  remaining binding at 1 µM: 100%
ERBB2
  remaining binding at 1 µM: 100%
ERBB4
  remaining binding at 1 µM: 100%
FGFR2
  remaining binding at 1 µM: 100%
FYN
  remaining binding at 1 µM: 100%
GSK3B
  remaining binding at 1 µM: 95%
IGF1R
  remaining binding at 1 µM: 100%
INSR
  remaining binding at 1 µM: 100%
JNK3
  remaining binding at 1 µM: 98%
KIT(D816H)
  remaining binding at 1 µM: 100%
KIT(V559D,T670I)
  remaining binding at 1 µM: 100%
MEK1
  remaining binding at 1 µM: 89%
MLK1
  remaining binding at 1 µM: 97%
NEK6
  remaining binding at 1 µM: 100%
PAK1
  remaining binding at 1 µM: 71%
PCTK1
  remaining binding at 1 µM: 87%
PDGFRB
  remaining binding at 1 µM: 20%
PIK3C2B
  remaining binding at 1 µM: 100%
PIK3CA
  remaining binding at 1 µM: 100%
PIM1
  remaining binding at 1 µM: 92%
PIM2
  remaining binding at 1 µM: 89%
PLK1
  remaining binding at 1 µM: 86%
RAF1
  remaining binding at 1 µM: 88%
RIOK2
  remaining binding at 1 µM: 100%
ROCK2
  remaining binding at 1 µM: 100%
SIK2
  remaining binding at 1 µM: 96%
SRC
  remaining binding at 1 µM: 88%
TNK1
  remaining binding at 1 µM: 78%
TSSK1B
  remaining binding at 1 µM: 100%
VEGFR2
  remaining binding at 1 µM: 95%
ZAP70
  remaining binding at 1 µM: 100%
p38Ealpha
  remaining binding at 1 µM: 100%
p38Ebeta
  remaining binding at 1 µM: 100%

Source: PMC6109843, “Novel Quinazolinone Inhibitors of ALK2 Flip between Alternate Binding Modes: Structure–Activity Relationship, Structural Characterization, Kinase Profiling, and Cellular Proof of Concept” (Journal of Medicinal Chemistry, 2018)
